# Assay results published in patent US11987588B2, “Modulators of the beta-3 adrenergic receptor useful for the treatment or prevention of heart failure and disorders related thereto” (Arena Pharmaceuticals, Inc., priority 2017, dated 2024).
# Biological target: Beta-3 Adrenergic Receptor (Homo sapiens (Human), UniProt P13945)
# Assay: Homogeneous Time-Resolved Fluorescence (HTRF) cAMP antagonist assay, IC50 determination
# Assay type: cell-based
# Conditions: CHO-K1 cells stably expressing recombinant receptor, isoproterenol at EC90
# Summary of the method: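 In this functional readout, recombinant CHO-K1 cells received compound, then isoproterenol at its EC90. After 1 h at room temperature, cAMP levels were determined by HTRF using an on-plate standard curve, and IC50 values were fitted.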
# Beta-3 Adrenergic Receptor, sequence (P13945 whole entry, species assumed): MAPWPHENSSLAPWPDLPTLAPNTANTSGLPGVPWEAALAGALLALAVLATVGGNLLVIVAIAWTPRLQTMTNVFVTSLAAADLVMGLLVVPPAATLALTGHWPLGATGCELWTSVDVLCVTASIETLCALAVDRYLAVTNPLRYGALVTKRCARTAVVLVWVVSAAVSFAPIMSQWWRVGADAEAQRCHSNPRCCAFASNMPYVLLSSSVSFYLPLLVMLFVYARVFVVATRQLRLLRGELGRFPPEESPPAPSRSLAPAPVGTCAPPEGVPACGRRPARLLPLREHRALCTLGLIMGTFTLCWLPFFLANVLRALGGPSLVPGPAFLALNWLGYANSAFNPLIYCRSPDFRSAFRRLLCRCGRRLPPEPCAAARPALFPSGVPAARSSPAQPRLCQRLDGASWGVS
row,IC50 [nM],Structure (SMILES)
1,101,"CNS(=O)(=O)c1cccc(OC[C@@H](O)CN[C@H]2COC3(CCN(S(=O)(=O)c4ccc5nccn5c4)CC3)C2)c1 [Compound 537, 3-((S)-2-hydroxy-3-((R)-8-(imidazo[1,2-a]pyridin-6-ylsulfonyl)-1-oxa-8-azaspiro[4.5]decan-3-ylamino)propoxy)-N-methylbenzenesulfonamide]"
2,16.7,"CNS(=O)(=O)c1cccc(OC[C@@H](O)CNC2COC3(CCN(S(=O)(=O)c4ccc(N(C)C)nc4)CC3)C2)c1 (stereo partly drawn) [Compound 422, 3-((2S)-3-(8-(6-(dimethylamino)pyridin-3-ylsulfonyl)-1-oxa-8-azaspiro[4.5]decan-3-ylamino)-2-hydroxypropoxy)-N-methylbenzenesulfonamide]"
3,23.1,"CNS(=O)(=O)c1cccc(OC[C@@H](O)CNC2COC3(CCN(S(=O)(=O)c4cccc(-c5cccc(CN)c5)c4)CC3)C2)c1 (stereo partly drawn) [Compound 67, 3-((2S)-3-(8-(3′-(aminomethyl)biphenyl-3-ylsulfonyl)-1-oxa-8-azaspiro[4.5]decan-3-ylamino)-2-hydroxypropoxy)-N-methylbenzenesulfonamide]"
4,17.4,"CNS(=O)(=O)c1cccc(OC[C@@H](O)CNC2COC3(CCN(S(=O)(=O)c4ccccc4Br)CC3)C2)c1 (stereo partly drawn) [Compound 54, 3-((2S)-3-(8-(2-bromophenylsulfonyl)-1-oxa-8-azaspiro[4.5]decan-3-ylamino)-2-hydroxypropoxy)-N-methylbenzenesulfonamide]"
5,42.4,"CNS(=O)(=O)c1cccc(OC[C@@H](O)CNC2COC3(CCN(S(=O)(=O)c4cccc(-c5ccc(CNCC(F)F)cc5)c4)CC3)C2)c1 (stereo partly drawn) [Compound 339, 3-((2S)-3-(8-(4′-((2,2-difluoroethylamino)methyl)biphenyl-3-ylsulfonyl)-1-oxa-8-azaspiro[4.5]decan-3-ylamino)-2-hydroxypropoxy)-N-methylbenzenesulfonamide]"
6,117,"CNS(=O)(=O)c1cccc(OC[C@@H](O)CN[C@H]2COC3(CCN(S(=O)(=O)c4ccc5c(c4)C(=O)C(=O)N5)CC3)C2)c1 [Compound 498, 3-((S)-3-((R)-8-(2,3-dioxoindolin-5-ylsulfonyl)-1-oxa-8-azaspiro[4.5]decan-3-ylamino)-2-hydroxypropoxy)-N-methylbenzenesulfonamide]"
7,172,"C[C@H](CO)NS(=O)(=O)c1cccc(OC[C@@H](O)CN[C@H]2COC3(CCN(S(=O)(=O)c4cnc5c(c4)N(C)CCO5)CC3)C2)c1 [Compound 418, 3-((S)-2-hydroxy-3-((R)-8-(1-methyl-2,3-dihydro-1H-pyrido[2,3-b][1,4]oxazin-7-ylsulfonyl)-1-oxa-8-azaspiro[4.5]decan-3-ylamino)propoxy)-N—((R)-1-hydroxypropan-2-yl)benzenesulfonamide]"
8,19.5,"CNS(=O)(=O)c1cccc(OC[C@@H](O)CN[C@@H]2COC3(CCN(S(=O)(=O)c4cc(-c5ccc(CN)cc5)ccc4OC(F)(F)F)CC3)C2)c1 [Compound 415, 3-((S)-3-((S)-8-(4′-(aminomethyl)-4-(trifluoromethoxy)biphenyl-3-ylsulfonyl)-1-oxa-8-azaspiro[4.5]decan-3-ylamino)-2-hydroxypropoxy)-N-methylbenzenesulfonamide]"
9,19.3,"CNS(=O)(=O)c1cccc(OC[C@@H](O)CNC2COC3(CCN(S(=O)(=O)c4cccc(-c5cc[nH]c5)c4)CC3)C2)c1 (stereo partly drawn) [Compound 63, 3-((2S)-3-(8-(3-(1H-pyrrol-3-yl)phenylsulfonyl)-1-oxa-8-azaspiro[4.5]decan-3-ylamino)-2-hydroxypropoxy)-N-methylbenzenesulfonamide]"
10,25,"CNS(=O)(=O)c1cccc(OC[C@@H](O)CN[C@H]2COC3(CCN(S(=O)(=O)c4cccc(-c5cccnc5)c4)CC3)C2)c1 [Compound 285, 3-((S)-2-hydroxy-3-((R)-8-(3-(pyridin-3-yl)phenylsulfonyl)-1-oxa-8-azaspiro[4.5]decan-3-ylamino)propoxy)-N-methylbenzenesulfonamide]"
11,9.82,"CNS(=O)(=O)c1cccc(OC[C@@H](O)CNC2COC3(CCN(S(=O)(=O)c4cccc(-c5cccnc5)c4)CC3)C2)c1 (stereo partly drawn) [Compound 88, 3-((2S)-2-hydroxy-3-(8-(3-(pyridin-3-yl)phenylsulfonyl)-1-oxa-8-azaspiro[4.5]decan-3-ylamino)propoxy)-N-methylbenzenesulfonamide]"
12,4.78,"CNS(=O)(=O)c1cccc(OC[C@@H](O)CNC2COC3(CCN(S(=O)(=O)c4ccc(Br)c(C)c4)CC3)C2)c1 (stereo partly drawn) [Compound 159, 3-((2S)-3-(8-(4-bromo-3-methylphenylsulfonyl)-1-oxa-8-azaspiro[4.5]decan-3-ylamino)-2-hydroxypropoxy)-N-methylbenzenesulfonamide]"
13,427,"CNS(=O)(=O)c1cccc(OC[C@@H](O)CN[C@H]2COC3(CCN(c4nccc(N)n4)CC3)C2)c1 [Compound 569, 3-((S)-3-((R)-8-(4-aminopyrimidin-2-yl)-1-oxa-8-azaspiro[4.5]decan-3-ylamino)-2-hydroxypropoxy)-N-methylbenzenesulfonamide]"
14,499,"CNS(=O)(=O)c1cccc(OC[C@@H](O)CNC2COC3(CCN(S(=O)(=O)c4ccc(C)c(-c5ccc(CN)cc5)c4)CC3)C2)c1 (stereo partly drawn) [Compound 376, 3-((2S)-3-(8-(4′-(aminomethyl)-6-methylbiphenyl-3-ylsulfonyl)-1-oxa-8-azaspiro[4.5]decan-3-ylamino)-2-hydroxypropoxy)-N-methylbenzenesulfonamide]"
15,143,"O=S(=O)(NC[C@H](O)CO)c1cccc(OC[C@@H](O)CNC2COC3(CCN(S(=O)(=O)c4ccc5ccccc5c4)CC3)C2)c1 (stereo partly drawn) [Compound 166, N—((S)-2,3-dihydroxypropyl)-3-((2S)-2-hydroxy-3-(8-(naphthalen-2-ylsulfonyl)-1-oxa-8-azaspiro[4.5]decan-3-ylamino)propoxy)benzenesulfonamide]"
16,389,"CNS(=O)(=O)c1cccc(OC[C@@H](O)CNC2COC3(CCN(S(=O)(=O)c4ccc(-c5nn[nH]n5)cc4)CC3)C2)c1 (stereo partly drawn) [Compound 410, 3-((2S)-3-(8-(4-(2H-tetrazol-5-yl)phenylsulfonyl)-1-oxa-8-azaspiro[4.5]decan-3-ylamino)-2-hydroxypropoxy)-N-methylbenzenesulfonamide]"
17,16.1,"CNS(=O)(=O)c1cccc(OC[C@@H](O)CNC2COC3(CCN(S(=O)(=O)c4cc(-c5ccc(CN)cc5)cc5c4OCC5)CC3)C2)c1 (stereo partly drawn) [Compound 358, 3-((2S)-3-(8-(5-(4-(aminomethyl)phenyl)-2,3-dihydrobenzofuran-7-ylsulfonyl)-1-oxa-8-azaspiro[4.5]decan-3-ylamino)-2-hydroxypropoxy)-N-methylbenzenesulfonamide]"
18,106,"CNS(=O)(=O)c1cccc(OC[C@@H](O)CNC2COC3(CCN(S(=O)(=O)c4ccc(C(=O)N(C)C)cc4)CC3)C2)c1 (stereo partly drawn) [Compound 24, 4-(3-((S)-2-hydroxy-3-(3-(N-methylsulfamoyl)phenoxy)propylamino)-1-oxa-8-azaspiro[4.5]decan-8-ylsulfonyl)-N,N-dimethylbenzamide]"
19,9.58,"CNS(=O)(=O)c1cccc(OC[C@@H](O)CNC2COC3(CCN(S(=O)(=O)c4ccc5c(ccn5C)c4)CC3)C2)c1 (stereo partly drawn) [Compound 221, 3-((2S)-2-hydroxy-3-(8-(1-methyl-1H-indol-5-ylsulfonyl)-1-oxa-8-azaspiro[4.5]decan-3-ylamino)propoxy)-N-methylbenzenesulfonamide]"
20,528,"CNS(=O)(=O)c1cccc(OC[C@@H](O)CN[C@H]2COC3(CCN(c4ncccn4)CC3)C2)c1 [Compound 576, 3-((S)-2-hydroxy-3-((R)-8-(pyrimidin-2-yl)-1-oxa-8-azaspiro[4.5]decan-3-ylamino)propoxy)-N-methylbenzenesulfonamide]"
21,8.65,"CNS(=O)(=O)c1cccc(OC[C@@H](O)CNC2COC3(CCN(S(=O)(=O)c4ccc(C)c(C#N)c4)CC3)C2)c1 (stereo partly drawn) [Compound 198, 3-((2S)-3-(8-(3-cyano-4-methylphenylsulfonyl)-1-oxa-8-azaspiro[4.5]decan-3-ylamino)-2-hydroxypropoxy)-N-methylbenzenesulfonamide]"
22,115,"CNS(=O)(=O)c1cccc(OC[C@@H](O)CNC2COC3(CCN(S(=O)(=O)c4cc(OC)cnc4C)CC3)C2)c1 (stereo partly drawn) [Compound 397, 3-((2S)-2-hydroxy-3-(8-(5-methoxy-2-methylpyridin-3-ylsulfonyl)-1-oxa-8-azaspiro[4.5]decan-3-ylamino)propoxy)-N-methylbenzenesulfonamide]"
23,23.6,"Cc1cccc2c(=O)c(S(=O)(=O)N3CCC4(CC3)C[C@@H](NC[C@H](O)COc3cccc(S(N)(=O)=O)c3)CO4)c[nH]c12 [Compound 553, 3-((S)-2-hydroxy-3-((R)-8-(8-methyl-4-oxo-1,4-dihydroquinolin-3-ylsulfonyl)-1-oxa-8-azaspiro[4.5]decan-3-ylamino)propoxy)benzenesulfonamide]"
24,71.1,"CC(C)CCNS(=O)(=O)c1cccc(OC[C@@H](O)CNC2COC3(CCN(S(=O)(=O)c4ccc5ccccc5c4)CC3)C2)c1 (stereo partly drawn) [Compound 98, 3-((2S)-2-hydroxy-3-(8-(naphthalen-2-ylsulfonyl)-1-oxa-8-azaspiro[4.5]decan-3-ylamino)propoxy)-N-isopentylbenzenesulfonamide]"
25,16.6,"CNS(=O)(=O)c1cccc(OC[C@@H](O)CNC2COC3(CCN(S(=O)(=O)c4cccc(C#N)c4)CC3)C2)c1 (stereo partly drawn) [Compound 32, 3-((2S)-3-(8-(3-cyanophenylsulfonyl)-1-oxa-8-azaspiro[4.5]decan-3-ylamino)-2-hydroxypropoxy)-N-methylbenzenesulfonamide]"
26,35.8,"CCCN1CCOc2ncc(S(=O)(=O)N3CCC4(CC3)C[C@@H](NC[C@H](O)COc3cccc(S(=O)(=O)NC)c3)CO4)cc21 [Compound 470, 3-((S)-2-hydroxy-3-((R)-8-(1-propyl-2,3-dihydro-1H-pyrido[2,3-b][1,4]oxazin-7-ylsulfonyl)-1-oxa-8-azaspiro[4.5]decan-3-ylamino)propoxy)-N-methylbenzenesulfonamide]"
